From ChEMBL document CHEMBL1909046, “DrugMatrix in vitro pharmacology data”

Assays:
[1] = target: Matrix metalloproteinase-9 (Homo sapiens, UniProt P14780); format: cell-based;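 further: inhibition of isolated MMP-9 enzyme activity toward a synthetic peptide substrate, from the DrugMatrix protease screening panel; in other assays of this panel Not Active means under 50% inhibition at 10 µM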
[2] = target: Sigma non-opioid intracellular receptor 1 (Homo sapiens, UniProt Q99720); experiment: DRUGMATRIX: Sigma1 radioligand binding (ligand: [3H] Haloperidol); format: cell membranes, Jurkat, Membrane; settings: jurkat; Not Active = under 50% inhibition at 10 µM
Chain of Sigma non-opioid intracellular receptor 1 (Q99720 whole entry): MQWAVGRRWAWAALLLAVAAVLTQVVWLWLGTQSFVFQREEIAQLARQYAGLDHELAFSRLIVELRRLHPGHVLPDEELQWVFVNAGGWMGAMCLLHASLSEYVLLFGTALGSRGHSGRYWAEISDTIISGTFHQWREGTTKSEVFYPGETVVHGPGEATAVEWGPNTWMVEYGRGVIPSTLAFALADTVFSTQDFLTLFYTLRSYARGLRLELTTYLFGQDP

[3] = DRUGMATRIX: Nicotinic Acetylcholine radioligand binding (ligand: [125I] Epibatidine); format: cell membranes, Membrane; settings: imr-32; Not Active = under 50% inhibition at 10 µM
[4] = target: T1, Muscarinic acetylcholine receptor M4 (Homo sapiens, UniProt P08173); format: cell membranes, CHO-K1, Membrane; settings: cho-k1; further: in other assays of this panel Not Active means under 50% inhibition at 10 µM
T1 sequence (P08173 whole entry): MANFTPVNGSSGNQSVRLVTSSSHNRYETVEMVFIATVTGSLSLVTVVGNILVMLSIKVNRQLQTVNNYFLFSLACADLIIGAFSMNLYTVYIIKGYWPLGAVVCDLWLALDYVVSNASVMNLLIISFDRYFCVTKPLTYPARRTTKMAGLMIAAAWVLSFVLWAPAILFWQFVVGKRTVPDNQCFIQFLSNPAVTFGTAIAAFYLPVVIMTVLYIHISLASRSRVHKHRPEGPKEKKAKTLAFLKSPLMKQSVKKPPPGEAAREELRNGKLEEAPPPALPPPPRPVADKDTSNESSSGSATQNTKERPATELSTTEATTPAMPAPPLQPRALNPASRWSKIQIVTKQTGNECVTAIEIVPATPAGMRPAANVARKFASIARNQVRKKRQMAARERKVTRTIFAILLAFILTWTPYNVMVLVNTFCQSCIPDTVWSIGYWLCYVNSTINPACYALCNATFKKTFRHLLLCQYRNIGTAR

[5] = target: Vascular endothelial growth factor receptor 1 (Homo sapiens, UniProt P17948); format: cell-based; settings: huvec; further: in other assays of this panel Not Active means under 50% inhibition at 10 µM
Chain of Vascular endothelial growth factor receptor 1 (P17948 whole entry): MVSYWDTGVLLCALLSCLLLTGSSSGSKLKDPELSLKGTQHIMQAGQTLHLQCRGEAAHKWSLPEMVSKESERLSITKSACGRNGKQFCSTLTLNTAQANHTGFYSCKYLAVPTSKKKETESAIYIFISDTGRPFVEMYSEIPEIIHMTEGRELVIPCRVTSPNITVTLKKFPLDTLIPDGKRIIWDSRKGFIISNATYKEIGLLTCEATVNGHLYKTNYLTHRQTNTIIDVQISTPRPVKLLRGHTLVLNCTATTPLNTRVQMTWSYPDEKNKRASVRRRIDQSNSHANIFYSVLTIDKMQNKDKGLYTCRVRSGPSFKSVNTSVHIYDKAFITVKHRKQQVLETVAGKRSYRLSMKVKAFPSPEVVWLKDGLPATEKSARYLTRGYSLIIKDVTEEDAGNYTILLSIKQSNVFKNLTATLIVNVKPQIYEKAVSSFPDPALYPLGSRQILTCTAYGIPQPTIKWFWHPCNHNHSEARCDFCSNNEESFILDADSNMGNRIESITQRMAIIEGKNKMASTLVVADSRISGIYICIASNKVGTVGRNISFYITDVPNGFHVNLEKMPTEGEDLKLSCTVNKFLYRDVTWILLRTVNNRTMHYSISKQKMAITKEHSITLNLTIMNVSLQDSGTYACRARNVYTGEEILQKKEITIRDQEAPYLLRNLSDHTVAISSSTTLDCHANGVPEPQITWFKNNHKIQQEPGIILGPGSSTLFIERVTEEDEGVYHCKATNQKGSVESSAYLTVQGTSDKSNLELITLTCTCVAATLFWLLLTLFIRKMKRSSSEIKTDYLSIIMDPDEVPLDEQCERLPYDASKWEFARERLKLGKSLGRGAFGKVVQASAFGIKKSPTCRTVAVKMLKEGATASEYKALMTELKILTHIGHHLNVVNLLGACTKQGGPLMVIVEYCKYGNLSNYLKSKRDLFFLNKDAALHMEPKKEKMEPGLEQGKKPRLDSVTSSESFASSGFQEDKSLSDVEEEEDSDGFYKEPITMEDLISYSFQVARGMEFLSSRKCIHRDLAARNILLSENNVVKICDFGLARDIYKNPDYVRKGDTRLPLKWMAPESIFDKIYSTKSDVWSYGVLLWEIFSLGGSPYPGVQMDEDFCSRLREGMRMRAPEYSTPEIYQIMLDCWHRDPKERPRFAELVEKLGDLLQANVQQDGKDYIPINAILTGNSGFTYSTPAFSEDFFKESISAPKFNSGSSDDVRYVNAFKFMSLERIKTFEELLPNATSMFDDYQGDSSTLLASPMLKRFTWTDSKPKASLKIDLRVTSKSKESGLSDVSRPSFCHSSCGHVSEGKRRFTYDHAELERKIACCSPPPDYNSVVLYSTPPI

[6] = DRUGMATRIX: Leukotriene, BLT (LTB4) radioligand binding (ligand: [3H]LTB4); format: cell membranes, Membrane; settings: u-937, Not Active = under 50% inhibition at 10 µM

Chain of Matrix metalloproteinase-9 (P14780 whole entry): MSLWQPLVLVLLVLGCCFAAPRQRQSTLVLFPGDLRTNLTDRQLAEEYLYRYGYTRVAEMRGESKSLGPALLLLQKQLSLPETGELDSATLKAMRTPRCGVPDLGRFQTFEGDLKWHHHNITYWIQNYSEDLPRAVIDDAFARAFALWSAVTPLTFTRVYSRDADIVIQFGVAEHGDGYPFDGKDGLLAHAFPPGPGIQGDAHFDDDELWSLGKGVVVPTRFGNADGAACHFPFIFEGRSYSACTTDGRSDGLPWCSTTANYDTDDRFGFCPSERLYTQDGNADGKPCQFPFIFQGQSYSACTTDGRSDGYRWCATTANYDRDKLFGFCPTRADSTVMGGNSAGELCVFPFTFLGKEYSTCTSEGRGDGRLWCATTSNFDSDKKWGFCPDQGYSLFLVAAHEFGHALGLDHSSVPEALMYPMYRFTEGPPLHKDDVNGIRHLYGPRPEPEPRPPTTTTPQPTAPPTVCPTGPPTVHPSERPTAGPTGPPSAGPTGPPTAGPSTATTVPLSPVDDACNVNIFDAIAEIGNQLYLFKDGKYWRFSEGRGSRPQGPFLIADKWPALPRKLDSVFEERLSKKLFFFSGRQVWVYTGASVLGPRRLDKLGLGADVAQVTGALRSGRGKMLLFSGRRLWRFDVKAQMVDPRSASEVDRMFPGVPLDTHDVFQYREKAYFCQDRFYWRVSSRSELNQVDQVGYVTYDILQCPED

Compound | IC50 [1] | IC50 [2] | IC50 [3] | Ki [3] | IC50 [4] | IC50 [5] | IC50 [6] | Ki [6] | IC50 ([6]; read-out: IC50) [µM] | Ki ([6]; read-out: Ki) [nM] | Ki [1] | Ki [2] | Ki [4] | Ki [5]
O=C(O)CO [GLYCOLIC ACID] | Not Active | Not Active | Not Active | Not Active | Not Active | Not Active | Not Active | Not Active | – | – | – | – | – | –
COC(=O)C[C@](O)(CCC(C)(C)O)C(=O)O[C@@H]1C(OC)=C[C@]23CCCN2CCc2cc4c(cc2[C@H]13)OCO4 [HARRINGTONINE] | Not Active | Not Active | Not Active | Not Active | Not Active | Not Active | Not Active | Not Active | – | – | – | – | – | –
CC12CCC(CC1=O)C2(C)C (stereo unspecified) [CAMPHOR] | Not Active | Not Active | Not Active | Not Active | Not Active | Not Active | Not Active | Not Active | – | – | – | – | – | –
CCN1CCN(C(=O)N[C@@H](C(=O)N[C@@H]2C(=O)N3[C@@H]2SC(C)(C)[C@@H]3C(=O)O)c2ccccc2)C(=O)C1=O [PIPERACILLIN] | Not Active | Not Active | Not Active | Not Active | Not Active | Not Active | Not Active | Not Active | – | – | – | – | – | –
C=CCO [ALLYL ALCOHOL] | Not Active | Not Active | Not Active | Not Active | Not Active | Not Active | Not Active | Not Active | – | – | – | – | – | –
O=C(O)CCc1nc(-c2ccccc2)c(-c2ccccc2)o1 [OXAPROZIN] | Not Active | Not Active | Not Active | Not Active | Not Active | Not Active | Not Active | Not Active | – | – | – | – | – | –
c1ccc2sc(SSc3nc4ccccc4s3)nc2c1 [BENZOTHIAZYL DISULFIDE] | Not Active | Not Active | Not Active | Not Active | Not Active | Not Active | – | – | 5.1 | 1300 | – | – | – | –
O=C1CN(/N=C/c2ccc([N+](=O)[O-])o2)C(=O)N1 [NITROFURANTOIN] | Not Active | Not Active | Not Active | Not Active | Not Active | Not Active | Not Active | Not Active | – | – | – | – | – | –
NCC(CC(=O)O)c1ccc(Cl)cc1 (stereo unspecified) [BACLOFEN] | Not Active | Not Active | Not Active | Not Active | Not Active | Not Active | Not Active | Not Active | – | – | – | – | – | –
OC[C@H]1O[C@@H]2O[C@H]3[C@H](O)[C@@H](O)[C@@H](O[C@H]4[C@H](O)[C@@H](O)[C@@H](O[C@H]5[C@H](O)[C@@H](O)[C@@H](O[C@H]6[C@H](O)[C@@H](O)[C@@H](O[C@H]7[C@H](O)[C@@H](O)[C@@H](O[C@H]8[C@H](O)[C@@H](O)[C@@H](O[C@H]1[C@H](O)[C@H]2O)O[C@@H]8CO)O[C@@H]7CO)O[C@@H]6CO)O[C@@H]5CO)O[C@@H]4CO)O[C@@H]3CO [BETADEX] | Not Active | Not Active | Not Active | Not Active | Not Active | Not Active | Not Active | Not Active | – | – | – | – | – | –
CC(C)NCC(O)COc1ccc(CC(N)=O)cc1 (stereo unspecified) [ATENOLOL] | Not Active | Not Active | Not Active | Not Active | Not Active | Not Active | Not Active | Not Active | – | – | – | – | – | –
Cl.NC[C@H]1CC[C@H](C(=O)Oc2ccc(CCC(=O)O)cc2)CC1 [CETRAXATE HYDROCHLORIDE] | Not Active | Not Active | Not Active | Not Active | Not Active | Not Active | Not Active | Not Active | – | – | – | – | – | –
O=C(NCCN1CCOCC1)c1ccc(Cl)cc1 [MOCLOBEMIDE] | Not Active | Not Active | Not Active | Not Active | Not Active | Not Active | Not Active | Not Active | – | – | – | – | – | –
CARBOXYMETHYLCELLULOSE | Not Active | Not Active | Not Active | Not Active | Not Active | Not Active | Not Active | Not Active | – | – | Not Active | Not Active | Not Active | Not Active
C[C@@H]1[C@H](O)[C@@H](C)/C=C/C=C/C=C/C=C/C=C/C=C/C=C/[C@H](O[C@@H]2O[C@H](C)[C@@H](O)[C@H](N)[C@@H]2O)C[C@@H]2O[C@](O)(C[C@@H](O)C[C@@H](O)[C@H](O)CC[C@@H](O)C[C@@H](O)CC(=O)O[C@H]1C)C[C@H](O)[C@H]2C(=O)O [AMPHOTERICIN B] | Not Active | Not Active | Not Active | Not Active | Not Active | Not Active | Not Active | Not Active | – | – | – | – | – | –
CCN(CCO)CCCC(C)Nc1ccnc2cc(Cl)ccc12 (stereo unspecified) [HYDROXYCHLOROQUINE] | Not Active | Not Active | Not Active | Not Active | Not Active | Not Active | Not Active | Not Active | – | – | – | – | – | –
CCC1(c2ccccc2)C(=O)NC(=O)NC1=O [PHENOBARBITAL] | Not Active | Not Active | Not Active | Not Active | Not Active | Not Active | Not Active | Not Active | – | – | – | – | – | –
C=CCN1CC[C@]23c4c5ccc(O)c4O[C@H]2/C(=N/N=C2\CC[C@@]4(O)[C@H]6Cc7ccc(O)c8c7[C@@]4(CCN6CC=C)[C@H]2O8)CC[C@@]3(O)[C@H]1C5 [NALOXONAZINE] | Not Active | Not Active | Not Active | Not Active | Not Active | Not Active | Not Active | Not Active | – | – | – | – | – | –
CC(C)(C#N)c1cc(Cn2cncn2)cc(C(C)(C)C#N)c1 [ANASTROZOLE] | Not Active | Not Active | Not Active | Not Active | Not Active | Not Active | Not Active | Not Active | – | – | – | – | – | –
OC[C@H]1O[C@@H]2O[C@H]3[C@H](O)[C@@H](O)[C@@H](O[C@H]4[C@H](O)[C@@H](O)[C@@H](O[C@H]5[C@H](O)[C@@H](O)[C@@H](O[C@H]6[C@H](O)[C@@H](O)[C@@H](O[C@H]7[C@H](O)[C@@H](O)[C@@H](O[C@H]1[C@H](O)[C@H]2O)O[C@@H]7CO)O[C@@H]6CO)O[C@@H]5CO)O[C@@H]4CO)O[C@@H]3CO [ALFADEX] | Not Active | Not Active | Not Active | Not Active | Not Active | Not Active | Not Active | Not Active | – | – | – | – | – | –
POVIDONE | Not Active | Not Active | Not Active | Not Active | Not Active | Not Active | Not Active | Not Active | – | – | Not Active | Not Active | Not Active | Not Active
c1ccc2c(c1)Nc1ccccc1S2 [PHENOTHIAZINE] | Not Active | Not Active | Not Active | Not Active | Not Active | Not Active | Not Active | Not Active | – | – | – | – | – | –
CC[C@H]1OC(=O)[C@H](C)[C@@H](O[C@H]2C[C@@](C)(OC)[C@@H](O)[C@H](C)O2)[C@H](C)[C@@H](O[C@@H]2O[C@H](C)C[C@H](N(C)C)[C@H]2O)[C@](C)(O)C[C@@H](C)C(=O)[C@H](C)[C@@H](O)[C@]1(C)O [ERYTHROMYCIN] | Not Active | Not Active | Not Active | Not Active | Not Active | Not Active | Not Active | Not Active | – | – | – | – | – | –
NS(=O)(=O)c1cc(C(=O)O)c(NCc2ccco2)cc1Cl [FUROSEMIDE] | Not Active | Not Active | Not Active | Not Active | Not Active | Not Active | Not Active | Not Active | – | – | – | – | – | –
COc1cc([C@@H]2c3cc4c(cc3[C@H](O)[C@H]3COC(=O)[C@H]23)OCO4)cc(OC)c1OC [PODOFILOX] | Not Active | Not Active | Not Active | Not Active | Not Active | Not Active | Not Active | Not Active | – | – | – | – | – | –
CC(N)Cc1c[nH]c2ccc(OCc3cccs3)cc12 (stereo unspecified) [BW-723C86] | Not Active | Not Active | Not Active | Not Active | Not Active | Not Active | Not Active | Not Active | – | – | – | – | – | –
